Source: patent US20240025862A1, “SUBSTITUTED N-PHENYLURACILS AND SALTS THEREOF, AND USE THEREOF AS HERBICIDAL ACTIVE SUBSTANCES” (Bayer Aktiengesellschaft, priority 2020, published 2024)

What was measured:
Assay type in all cases: in vivo
[1] = system: Pharbitis purpurea (PHBPU); assay: Post-emergence herbicidal action, greenhouse pot test
Procedure, shortened: (§1)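 Greenhouse-grown weeds in sandy loam were sprayed post-emergence at the one-leaf stage, 2–3 weeks after sowing. Compounds were formulated as WP or EC in water with 0.5% additive at 600 l/ha, at rates of 20 g/ha or less. Visual rating after about 3 weeks used a scale from 0% (like untreated control) to 100% (plants dead).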

[2] = system: Abutilon theophrasti (ABUTH); assay: as above; details: rated visually after about 3 weeks vs untreated controls, 100% = plants have died
Procedure, shortened: as §1

[3] = system: Viola tricolor (VIOTR); assay: as above
Procedure, shortened: as §1

[4] = system: Veronica persica (VERPE); assay: as above
Procedure, shortened: as §1

[5] = system: Avena fatua (AVEFA); assay: as above; details: 20 g/ha, rated visually after about 3 weeks vs untreated controls, 100% = plants have died
Procedure, shortened: as §1

[6] = system: Stellaria media (STEME); assay: as above
Procedure, shortened: as §1

[7] = system: Polygonum convolvulus (POLCO); assay: as above
Procedure, shortened: as §1

[8] = system: Hordeum murinum (HORMU); assay: as above; details: rated visually after about 3 weeks vs untreated controls, 100% = plants have died
Procedure, shortened: as §1

[9] = system: Amaranthus retroflexus (AMARE); assay: as above; details: rated visually after about 3 weeks vs untreated controls, 100% = plants have died
Procedure, shortened: as §1

[10] = system: Alopecurus myosuroides (ALOMY); assay: Post-emergence herbicidal action, greenhouse pot test (also comparative test C); details: rated visually after about 3 weeks vs untreated controls, 100% = plants have died
Procedure, shortened: (§2)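 Visual rating against untreated controls, about 3 weeks after spraying, from 0% (like control) to 100% (plants dead). Weeds were treated at the one-leaf stage, 2–3 weeks after sowing in sandy loam, with aqueous WP/EC spray containing 0.5% additive at 600 l/ha. Doses were ≤20 g/ha, or ≤5 g/ha for comparative test C.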

[11] = system: Matricaria inodora (MATIN); assay: as above
Procedure, shortened: as §2

[12] = system: Echinochloa crus-galli (ECHCG); assay: as above; details: for Post-emergence action at 1.25 g/ha against ECHCG in %: rated visually after about 3 weeks vs untreated controls, 100% = plants have died
Procedure, shortened: as §2

[13] = system: Setaria viridis (SETVI); assay: as above; details: for Post-emergence action against SETVI: 20 g/ha
Procedure, shortened: as §2

[14] = system: Brassica napus (BRSNW); assay: Post-emergence crop plant compatibility, greenhouse pot test; details: 1.25 g/ha, vs untreated controls
Procedure, shortened: (§3)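 Percent crop injury was judged by eye roughly three weeks after treatment, relative to untreated plants, where 100% meant death. Application was a post-emergence spray at the one-leaf stage, 600 l/ha water volume with 0.5% additive; letters a, b, c denote differing dose rates.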

[15] = system: Triticum aestivum (TRZAS); assay: as above; details: vs untreated controls
Procedure, shortened: as §3

[16] = system: Zea mays (ZEAMX); assay: as above; details: vs untreated controls
Procedure, shortened: as §3

[17] = system: Lolium rigidum (LOLRI); assay: Post-emergence herbicidal action, greenhouse pot test
Procedure, shortened: as §1

[18] = system: Oryza sativa (ORYSA); assay: Post-emergence crop plant compatibility, greenhouse pot test (also comparative test C); details: 1.25 g/ha, vs untreated controls
Procedure, shortened: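 Rice and other crops sprayed post-emergence at one-leaf stage (2–3 weeks after sowing) with WP or EC formulations plus 0.5% additive at 600 l/ha water. Visual rating about 3 weeks later versus untreated controls (100% = dead, 0% = like control); suffixes a–c denote different doses.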

Cn1c(C(F)(F)F)cc(=O)n(-c2cc(Sc3ccccc3OCC(=O)OCC3CCCO3)c(Cl)cc2F)c1=O (racemic) [I.1-71]
Post-emergence action against PHBPU in % ([1]; dosage 1.25 g/ha): 100% | Post-emergence action against PHBPU in % ([1]; dosage 5 g/ha): 100% | Post-emergence action against PHBPU in % ([1]; dosage 20 g/ha): 100% | Post-emergence action at 1.25 g/ha against ABUTH in % [2]: 100% | Post-emergence action at 5 g/ha against ABUTH in % [2]: 100% | Post-emergence action at 20 g/ha against ABUTH in % [2]: 100% | Post-emergence action against VIOTR ([3]; 1.25 g/ha): 100% | Post-emergence action against VIOTR ([3]; 5 g/ha): 100% | Post-emergence action against VIOTR ([3]; 20 g/ha): 100% | Post-emergence action against VERPE ([4]; 1.25 g/ha): 100% | Post-emergence action against VERPE ([4]; 5 g/ha): 100% | Post-emergence action against VERPE ([4]; 20 g/ha): 100% | Post-emergence action at 20 g/ha against AVEFA in % [5]: 80% | Post-emergence action against STEME ([6]; 1.25 g/ha): 90% | Post-emergence action against STEME ([6]; 5 g/ha): 100% | Post-emergence action against STEME ([6]; 20 g/ha): 100% | Post-emergence action against POLCO in % ([7]; dosage 1.25 g/ha): 100% | Post-emergence action against POLCO in % ([7]; dosage 5 g/ha): 100% | Post-emergence action against POLCO in % ([7]; dosage 20 g/ha): 100% | Post-emergence action at 5 g/ha against HORMU in % [8]: 80% | Post-emergence action at 20 g/ha against HORMU in % [8]: 90% | Post-emergence action at 1.25 g/ha against AMARE in % [9]: 100% | Post-emergence action at 5 g/ha against AMARE in % [9]: 100% | Post-emergence action at 20 g/ha against AMARE in % [9]: 100% | Post-emergence action at 5 g/ha against ALOMY in % [10]: 80% | Post-emergence action at 20 g/ha against ALOMY in % [10]: 90% | Post-emergence action against MATIN in % ([11]; dosage 1.25 g/ha): 80% | Post-emergence action against MATIN in % ([11]; dosage 5 g/ha): 90% | Post-emergence action against MATIN in % ([11]; dosage 20 g/ha): 100% | Post-emergence action at 1.25 g/ha against ECHCG in % [12]: 100% | Post-emergence action against ECHCG in % ([12]; dosage 20 g/ha): 100% | Post-emergence action against SETVI [13]: 100% | Post-emergence action against SETVI in % ([13]; dosage 1.25 g/ha): 100% | Post-emergence action against SETVI in % ([13]; dosage 5 g/ha): 100% | Post-emergence action against BRSNW (crop plant compatibility) [14]: 20% | Post-emergence action against TRZAS (crop plant compatibility) ([15]; 1.25 g/ha): 10% | Post-emergence action against TRZAS (crop plant compatibility) ([15]; 5 g/ha): 20% | Post-emergence action against ZEAMX (crop plant compatibility) ([16]; 1.25 g/ha): 20%

COCCCOC(=O)COc1ccccc1Sc1cc(-n2c(=O)cc(C(F)(F)F)n(C)c2=O)c(F)cc1Cl [I.1-26]
Post-emergence action against PHBPU in % ([1]; dosage 1.25 g/ha): 100% | Post-emergence action against PHBPU in % ([1]; dosage 5 g/ha): 100% | Post-emergence action against PHBPU in % ([1]; dosage 20 g/ha): 100% | Post-emergence action at 1.25 g/ha against ABUTH in % [2]: 100% | Post-emergence action at 5 g/ha against ABUTH in % [2]: 100% | Post-emergence action at 20 g/ha against ABUTH in % [2]: 100% | Post-emergence action against VIOTR ([3]; 1.25 g/ha): 100% | Post-emergence action against VIOTR ([3]; 5 g/ha): 100% | Post-emergence action against VIOTR ([3]; 20 g/ha): 100% | Post-emergence action against VERPE ([4]; 1.25 g/ha): 100% | Post-emergence action against VERPE ([4]; 5 g/ha): 100% | Post-emergence action against VERPE ([4]; 20 g/ha): 100% | Post-emergence action at 20 g/ha against AVEFA in % [5]: 80% | Post-emergence action against STEME ([6]; 1.25 g/ha): 100% | Post-emergence action against STEME ([6]; 5 g/ha): 100% | Post-emergence action against STEME ([6]; 20 g/ha): 100% | Post-emergence action against POLCO in % ([7]; dosage 1.25 g/ha): 100% | Post-emergence action against POLCO in % ([7]; dosage 5 g/ha): 100% | Post-emergence action against POLCO in % ([7]; dosage 20 g/ha): 100% | Post-emergence action at 5 g/ha against HORMU in % [8]: 80% | Post-emergence action at 20 g/ha against HORMU in % [8]: 90% | Post-emergence action at 5 g/ha against LOLRI in % ([17]; 5 g/ha, rated visually after about 3 weeks vs untreated controls, 100% = plants have died): 80% | Post-emergence action against LOLRI in % ([17]; dosage 20 g/ha): 90% | Post-emergence action at 1.25 g/ha against AMARE in % [9]: 100% | Post-emergence action at 5 g/ha against AMARE in % [9]: 100% | Post-emergence action at 20 g/ha against AMARE in % [9]: 100% | Post-emergence action against ORYSA (crop plant compatibility) [18]: 10% | Post-emergence action at 5 g/ha against ALOMY in % [10]: 80% | Post-emergence action at 20 g/ha against ALOMY in % [10]: 90% | Post-emergence action against MATIN in % ([11]; dosage 1.25 g/ha): 80% | Post-emergence action against MATIN in % ([11]; dosage 5 g/ha): 80% | Post-emergence action against MATIN in % ([11]; dosage 20 g/ha): 100% | Post-emergence action at 1.25 g/ha against ECHCG in % [12]: 90% | Post-emergence action against ECHCG in % ([12]; dosage 5 g/ha): 90% | Post-emergence action against ECHCG in % ([12]; dosage 20 g/ha): 100% | Post-emergence action against SETVI [13]: 100% | Post-emergence action against SETVI in % ([13]; dosage 1.25 g/ha): 100% | Post-emergence action against SETVI in % ([13]; dosage 5 g/ha): 100% | Post-emergence action against BRSNW (crop plant compatibility) [14]: 20% | Post-emergence action against ZEAMX (crop plant compatibility) ([16]; 1.25 g/ha): 10% | Post-emergence action against ZEAMX (crop plant compatibility) ([16]; 5 g/ha): 20%
